Data reported in ChEMBL document CHEMBL1201862, “PubChem BioAssay data set” (2004).
Counter-ions that a name gives are not always drawn. Active and inactive are the calls of the source.

What was measured:
Cytochrome P450 1A2 = target: T1, Cytochrome P450 1A2 (Homo sapiens, UniProt P05177);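 further: PubChem cytochrome P450 panel assay, CYP1A2 panel member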
T1 sequence (P05177 whole entry): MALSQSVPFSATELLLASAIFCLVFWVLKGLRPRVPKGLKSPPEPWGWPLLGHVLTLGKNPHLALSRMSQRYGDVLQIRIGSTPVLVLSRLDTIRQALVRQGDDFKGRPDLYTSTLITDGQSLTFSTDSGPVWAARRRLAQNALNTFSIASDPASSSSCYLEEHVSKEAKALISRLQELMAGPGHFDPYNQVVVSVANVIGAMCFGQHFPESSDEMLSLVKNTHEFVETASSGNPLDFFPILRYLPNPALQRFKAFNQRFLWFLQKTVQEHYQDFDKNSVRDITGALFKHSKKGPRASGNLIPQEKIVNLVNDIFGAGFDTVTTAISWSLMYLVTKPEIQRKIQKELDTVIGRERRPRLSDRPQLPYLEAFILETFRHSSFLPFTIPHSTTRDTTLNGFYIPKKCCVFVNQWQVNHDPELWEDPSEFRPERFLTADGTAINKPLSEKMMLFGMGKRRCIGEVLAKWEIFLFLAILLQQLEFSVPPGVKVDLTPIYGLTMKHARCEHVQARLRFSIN

Cytochrome P450 2C9 = Cytochrome P450 2C9 (Homo sapiens, UniProt P11712)
Fatty acid synthase [1] = target: T2, Fatty acid synthase (Homo sapiens, UniProt P49327); experiment: FAS thioesterase domain inhibitors, dose response, biochemical, endpoint fluorescence intensity, uHTS hits (AID 624327); type: functional;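 further: fluorescence from hydrolysis of an O-methyl fluorescein acyl ester substrate by the enzyme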
Fatty acid synthase [2] = target: T2, Fatty acid synthase; experiment: FAS thioesterase domain inhibitors, dose response, biochemical, kinetic fluorescence intensity (AID 624326); type: functional;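 further: rate of fluorescence rise from hydrolysis of a fluorogenic O-methyl fluorescein ester substrate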
[3] = target: T3, Calpain-2 catalytic subunit (Sus scrofa, UniProt P43367); experiment: pig calpain II inhibitor potency, dose response, biochemical, fluorogenic peptide substrate (AID 1420); type: functional
T3 sequence (P43367 whole entry): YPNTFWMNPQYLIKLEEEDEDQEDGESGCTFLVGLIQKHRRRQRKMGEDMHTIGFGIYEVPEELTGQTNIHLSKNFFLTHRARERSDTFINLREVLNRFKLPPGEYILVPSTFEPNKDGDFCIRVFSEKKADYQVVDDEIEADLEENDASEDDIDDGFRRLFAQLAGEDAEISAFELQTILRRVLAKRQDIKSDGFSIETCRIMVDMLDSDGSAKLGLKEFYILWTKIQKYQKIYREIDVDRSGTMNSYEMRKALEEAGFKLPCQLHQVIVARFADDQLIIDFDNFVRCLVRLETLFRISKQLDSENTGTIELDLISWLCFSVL

[4] = inhibitors of firefly luciferase expression or activity, dose response, H4 neuroglioma cells, luminescence (AID 1990); type: functional, cell-based
[5] = Luminescence Cell-Based Dose Response HTS to Identify Inhibitors of 5'UTR Stem-Loop Driven Prion Protein mRNA Translation in H4 Neuroglioblastoma Cells. [Related pubchem assays: 1827 (Project Summary), 1813 (Primary HTS)]; type: functional
[6] = inhibitors of SNCA 5'UTR-driven reporter translation, confirmation, H4 neuroglioma cells, luminescence (AID 1988); type: functional, cell-based
Vero = experiment: cells; type: functional; settings: Chlorocebus sabaeus
Cytochrome P450 2C19 = Cytochrome P450 2C19 (Homo sapiens, UniProt P33261); experiment: Cytochrome panel assay with activity outcomes. Panel member name: p450-cyp2c19 Compounds with AC50 equal or less than 10 uM are considered active; type: functional; settings: read-out: AC50
Cytochrome P450 3A4 = Cytochrome P450 3A4 (Homo sapiens, UniProt P08684);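 further: CYP3A4 tested as one member of a cytochrome P450 panel screen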
Escherichia coli = experiment: microbe, parasite or virus in culture
[7] = inhibitors of intracellular T. cruzi replication, confirmation, NIH3T3 host cells, beta-gal luminescence (AID 2044); type: functional, cell-based;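 further: intracellular parasites grown in NIH/3T3 mouse fibroblasts as host cells; luminescent beta-galactosidase reporter signal from transgenic T. cruzi replicating inside host cells; inhibitors lower the luminescence signal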
[8] = cytotoxicity toward NIH3T3 fibroblasts, dose response, counter-screen, cell-based, ATP luminescence, mouse fibroblasts (AID 2010); type: functional;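 further: cells exposed to compound for about 90 hours before reading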
[9] = target: DNA dC->dU-editing enzyme APOBEC-3A (Homo sapiens, UniProt P31941); experiment: Dose Response confirmation of small molecule APOBEC3A DNA Deaminase Inhibitors via a fluorescence-based single-stranded DNA deaminase assay. [Related pubchem assays (depositor defined):AID493011, AID493024]; type: functional
[10] = target: DNA dC->dU-editing enzyme APOBEC-3G (Homo sapiens, UniProt Q9HC16); type: functional;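 further: Dose-response counterscreen measuring inhibition of APOBEC3G DNA deaminase activity, run while confirming APOBEC3A inhibitors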
INS1 = experiment: beta cell apoptosis inhibitors, cytokine rescue, dose response, luminescence, retest (AID 449756); type: functional, cell-based; settings: Rattus norvegicus;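 further: cell death triggered by IL-1 beta plus TNF-alpha plus IFN-gamma mixture; protective hits raise ATP signal compared with cytokine alone wells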
[11] = target: T4, Carboxy-terminal domain RNA polymerase II polypeptide A small phosphatase 1 (Homo sapiens, UniProt Q9GZU7); experiment: inhibitors of CTDSP1, concentration-response testing, biochemical assay, absorbance-based, actives from ultra-high-throughput screening (AID 540297); type: functional
T4 sequence (Q9GZU7 whole entry): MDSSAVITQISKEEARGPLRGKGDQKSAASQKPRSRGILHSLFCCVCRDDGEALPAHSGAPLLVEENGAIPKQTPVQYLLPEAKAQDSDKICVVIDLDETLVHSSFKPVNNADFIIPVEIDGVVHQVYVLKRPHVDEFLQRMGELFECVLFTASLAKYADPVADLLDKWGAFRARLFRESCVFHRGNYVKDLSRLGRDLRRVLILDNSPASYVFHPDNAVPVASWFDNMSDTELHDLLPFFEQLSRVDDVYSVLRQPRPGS

Genome polyprotein = Genome polyprotein (dengue virus type 2, UniProt P29990); experiment: Dengue-2 NS5 methyltransferase inhibitors, primary screen, biochemical, confirmation dose response (AID 588689); type: functional
[12] = growth suppression of PTEN-null colon cells, dose response, cell-based, HCT116 PTEN knockout (AID 1047); type: functional;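 further: HCT116 colon tumor cells with PTEN knocked out; cells exposed to compound for 60 hours before readout; potency for loss of cell viability measured by luminescence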
[13] = growth suppression of beta-catenin-knockout colon cells, dose response, cell-based, HCT116, human colon tumor (AID 1045); type: functional;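 further: HCT116 colon tumor cells with beta catenin knocked out; cells exposed to compound for 60 hours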
BJ [14] = experiment: cytotoxicity toward BJ-TERT fibroblasts, dose response, cell-based, RAS-independent, luminescence (AID 1933); type: functional; settings: Homo sapiens
BJ [15] = experiment: cells; type: functional, cell-based; settings: Homo sapiens
BJ [16] = experiment: cytotoxicity toward BJ-TERT-LT-ST fibroblasts, dose response, cell-based, RAS-independent, luminescence (AID 1935); type: functional; settings: Homo sapiens;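 further: BJ fibroblasts immortalized with TERT plus LT and ST oncogenes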
[17] = cytotoxicity toward DRD oncogenic fibroblasts, dose response, cell-based, non-viral oncogenic, luminescence (AID 1934); type: functional; settings: Homo sapiens
[18] = cytotoxicity in HEK-293T cells, dose response, cytotoxicity control for TCR NF-kB inhibitor project, luminescence, T-cell screen hits (AID 489026); type: functional, cell-based;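 further: cells exposed to compound about 14 hours before the viability readout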
Cytochrome P450 2D6 = Cytochrome P450 2D6 (Homo sapiens, UniProt P10635);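 further: CYP2D6 member of a cytochrome P450 panel assay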
Cytochrome P450 2D6, sequence (P10635 whole entry): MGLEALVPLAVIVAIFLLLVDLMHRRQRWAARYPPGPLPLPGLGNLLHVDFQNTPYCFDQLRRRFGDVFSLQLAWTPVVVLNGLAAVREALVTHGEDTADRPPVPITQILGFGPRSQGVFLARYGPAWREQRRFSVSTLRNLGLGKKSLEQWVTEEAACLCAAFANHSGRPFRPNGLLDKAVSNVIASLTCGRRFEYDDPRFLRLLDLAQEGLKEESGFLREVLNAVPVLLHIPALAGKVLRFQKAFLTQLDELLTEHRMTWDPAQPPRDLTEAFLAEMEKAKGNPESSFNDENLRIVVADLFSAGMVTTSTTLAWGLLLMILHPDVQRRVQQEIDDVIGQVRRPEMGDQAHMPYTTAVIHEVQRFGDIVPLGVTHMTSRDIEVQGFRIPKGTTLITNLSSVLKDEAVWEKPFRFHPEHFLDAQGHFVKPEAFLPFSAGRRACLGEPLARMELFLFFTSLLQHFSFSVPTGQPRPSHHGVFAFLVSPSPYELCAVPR

T2 sequence (P49327 whole entry, the tested form may be a part): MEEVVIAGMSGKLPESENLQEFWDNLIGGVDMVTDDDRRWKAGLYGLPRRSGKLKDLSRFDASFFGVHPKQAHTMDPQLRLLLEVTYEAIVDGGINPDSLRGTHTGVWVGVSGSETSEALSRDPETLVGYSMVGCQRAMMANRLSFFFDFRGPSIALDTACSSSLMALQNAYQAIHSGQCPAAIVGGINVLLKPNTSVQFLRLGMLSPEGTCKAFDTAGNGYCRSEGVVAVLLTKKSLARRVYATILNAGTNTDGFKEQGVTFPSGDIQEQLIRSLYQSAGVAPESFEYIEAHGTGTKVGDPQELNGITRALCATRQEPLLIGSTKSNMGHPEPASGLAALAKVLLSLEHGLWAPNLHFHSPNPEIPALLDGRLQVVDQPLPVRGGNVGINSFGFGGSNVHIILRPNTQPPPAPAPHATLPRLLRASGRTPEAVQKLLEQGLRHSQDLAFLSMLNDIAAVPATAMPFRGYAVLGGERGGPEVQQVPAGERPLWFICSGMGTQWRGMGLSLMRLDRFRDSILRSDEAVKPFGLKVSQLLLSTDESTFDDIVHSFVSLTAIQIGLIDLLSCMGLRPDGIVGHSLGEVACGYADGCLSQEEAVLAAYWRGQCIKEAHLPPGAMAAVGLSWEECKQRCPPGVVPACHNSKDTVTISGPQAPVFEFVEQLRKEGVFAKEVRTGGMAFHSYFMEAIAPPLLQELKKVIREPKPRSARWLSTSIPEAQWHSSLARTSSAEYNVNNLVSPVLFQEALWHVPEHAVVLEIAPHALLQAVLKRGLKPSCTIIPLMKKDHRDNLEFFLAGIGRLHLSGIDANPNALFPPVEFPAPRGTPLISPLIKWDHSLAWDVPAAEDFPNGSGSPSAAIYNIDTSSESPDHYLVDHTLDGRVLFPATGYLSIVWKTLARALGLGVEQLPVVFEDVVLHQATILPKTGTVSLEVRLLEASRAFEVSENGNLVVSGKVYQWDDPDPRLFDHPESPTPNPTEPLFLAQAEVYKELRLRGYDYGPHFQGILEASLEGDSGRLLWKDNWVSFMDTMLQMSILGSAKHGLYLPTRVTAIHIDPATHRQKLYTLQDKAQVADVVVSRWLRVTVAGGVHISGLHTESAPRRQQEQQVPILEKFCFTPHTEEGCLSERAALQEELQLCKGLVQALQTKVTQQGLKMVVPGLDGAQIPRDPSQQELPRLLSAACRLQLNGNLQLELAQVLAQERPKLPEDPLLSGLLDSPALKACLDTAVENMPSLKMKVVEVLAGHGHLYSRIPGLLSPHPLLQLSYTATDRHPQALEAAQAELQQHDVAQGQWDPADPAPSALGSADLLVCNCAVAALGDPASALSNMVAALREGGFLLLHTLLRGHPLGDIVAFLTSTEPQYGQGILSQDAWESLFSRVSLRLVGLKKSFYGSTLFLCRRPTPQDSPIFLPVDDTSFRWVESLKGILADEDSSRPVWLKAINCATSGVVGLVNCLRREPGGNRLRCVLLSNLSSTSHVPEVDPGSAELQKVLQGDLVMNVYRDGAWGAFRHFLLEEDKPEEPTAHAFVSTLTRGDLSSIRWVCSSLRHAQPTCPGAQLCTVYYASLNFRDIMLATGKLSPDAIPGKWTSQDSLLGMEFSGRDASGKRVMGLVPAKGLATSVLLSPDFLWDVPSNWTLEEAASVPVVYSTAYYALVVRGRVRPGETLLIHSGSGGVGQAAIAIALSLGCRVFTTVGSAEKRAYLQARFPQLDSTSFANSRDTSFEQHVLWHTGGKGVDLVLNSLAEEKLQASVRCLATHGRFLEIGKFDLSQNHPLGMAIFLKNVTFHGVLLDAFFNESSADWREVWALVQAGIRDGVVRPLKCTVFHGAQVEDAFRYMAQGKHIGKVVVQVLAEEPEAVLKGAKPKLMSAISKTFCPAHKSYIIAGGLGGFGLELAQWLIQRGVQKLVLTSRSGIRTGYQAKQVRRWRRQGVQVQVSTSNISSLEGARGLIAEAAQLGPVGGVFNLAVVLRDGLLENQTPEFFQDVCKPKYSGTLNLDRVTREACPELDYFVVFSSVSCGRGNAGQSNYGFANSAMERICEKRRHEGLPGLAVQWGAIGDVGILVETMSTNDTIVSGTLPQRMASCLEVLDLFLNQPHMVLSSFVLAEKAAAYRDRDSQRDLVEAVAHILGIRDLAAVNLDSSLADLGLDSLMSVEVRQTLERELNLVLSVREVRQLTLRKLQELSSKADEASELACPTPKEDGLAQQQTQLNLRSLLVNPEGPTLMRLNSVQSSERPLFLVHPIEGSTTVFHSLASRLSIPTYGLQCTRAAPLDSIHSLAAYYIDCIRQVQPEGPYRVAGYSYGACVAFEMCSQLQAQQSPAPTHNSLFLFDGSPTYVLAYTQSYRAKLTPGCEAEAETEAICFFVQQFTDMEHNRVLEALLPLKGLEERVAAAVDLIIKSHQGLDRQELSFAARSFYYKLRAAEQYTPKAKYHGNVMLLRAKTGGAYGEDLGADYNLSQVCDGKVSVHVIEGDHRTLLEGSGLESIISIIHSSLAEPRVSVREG
DNA dC->dU-editing enzyme APOBEC-3A, sequence (P31941 whole entry): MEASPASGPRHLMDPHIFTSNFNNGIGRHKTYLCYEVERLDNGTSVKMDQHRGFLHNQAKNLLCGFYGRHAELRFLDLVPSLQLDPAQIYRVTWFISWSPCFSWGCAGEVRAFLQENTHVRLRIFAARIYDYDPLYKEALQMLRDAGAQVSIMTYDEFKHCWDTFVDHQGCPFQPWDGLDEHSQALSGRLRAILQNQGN
DNA dC->dU-editing enzyme APOBEC-3G, sequence (Q9HC16 whole entry): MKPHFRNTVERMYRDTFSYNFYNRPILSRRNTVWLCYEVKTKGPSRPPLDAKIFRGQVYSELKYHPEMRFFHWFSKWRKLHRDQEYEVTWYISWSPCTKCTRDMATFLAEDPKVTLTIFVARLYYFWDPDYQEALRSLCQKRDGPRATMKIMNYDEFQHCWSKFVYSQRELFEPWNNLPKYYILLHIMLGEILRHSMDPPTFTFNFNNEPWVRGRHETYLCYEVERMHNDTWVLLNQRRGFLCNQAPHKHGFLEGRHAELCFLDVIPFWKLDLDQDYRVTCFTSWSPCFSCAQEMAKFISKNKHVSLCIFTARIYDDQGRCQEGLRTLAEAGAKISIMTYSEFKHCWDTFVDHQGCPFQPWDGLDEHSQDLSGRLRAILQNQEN
Cytochrome P450 2C9, sequence (P11712 whole entry, the tested form may be a part): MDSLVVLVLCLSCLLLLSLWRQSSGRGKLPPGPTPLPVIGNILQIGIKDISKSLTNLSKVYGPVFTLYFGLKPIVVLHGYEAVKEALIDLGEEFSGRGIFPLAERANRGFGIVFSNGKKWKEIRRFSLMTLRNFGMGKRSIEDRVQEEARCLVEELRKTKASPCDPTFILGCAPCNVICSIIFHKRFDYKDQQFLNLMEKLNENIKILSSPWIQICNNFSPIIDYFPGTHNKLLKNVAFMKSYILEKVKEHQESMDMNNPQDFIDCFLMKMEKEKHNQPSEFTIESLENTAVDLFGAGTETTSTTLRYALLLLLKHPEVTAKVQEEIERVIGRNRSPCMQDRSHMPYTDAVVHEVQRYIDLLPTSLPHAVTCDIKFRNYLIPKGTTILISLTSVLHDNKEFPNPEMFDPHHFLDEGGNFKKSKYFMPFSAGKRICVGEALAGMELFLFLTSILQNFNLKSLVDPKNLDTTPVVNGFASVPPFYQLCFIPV
Genome polyprotein, sequence (P29990 2492-3391 limits assumed): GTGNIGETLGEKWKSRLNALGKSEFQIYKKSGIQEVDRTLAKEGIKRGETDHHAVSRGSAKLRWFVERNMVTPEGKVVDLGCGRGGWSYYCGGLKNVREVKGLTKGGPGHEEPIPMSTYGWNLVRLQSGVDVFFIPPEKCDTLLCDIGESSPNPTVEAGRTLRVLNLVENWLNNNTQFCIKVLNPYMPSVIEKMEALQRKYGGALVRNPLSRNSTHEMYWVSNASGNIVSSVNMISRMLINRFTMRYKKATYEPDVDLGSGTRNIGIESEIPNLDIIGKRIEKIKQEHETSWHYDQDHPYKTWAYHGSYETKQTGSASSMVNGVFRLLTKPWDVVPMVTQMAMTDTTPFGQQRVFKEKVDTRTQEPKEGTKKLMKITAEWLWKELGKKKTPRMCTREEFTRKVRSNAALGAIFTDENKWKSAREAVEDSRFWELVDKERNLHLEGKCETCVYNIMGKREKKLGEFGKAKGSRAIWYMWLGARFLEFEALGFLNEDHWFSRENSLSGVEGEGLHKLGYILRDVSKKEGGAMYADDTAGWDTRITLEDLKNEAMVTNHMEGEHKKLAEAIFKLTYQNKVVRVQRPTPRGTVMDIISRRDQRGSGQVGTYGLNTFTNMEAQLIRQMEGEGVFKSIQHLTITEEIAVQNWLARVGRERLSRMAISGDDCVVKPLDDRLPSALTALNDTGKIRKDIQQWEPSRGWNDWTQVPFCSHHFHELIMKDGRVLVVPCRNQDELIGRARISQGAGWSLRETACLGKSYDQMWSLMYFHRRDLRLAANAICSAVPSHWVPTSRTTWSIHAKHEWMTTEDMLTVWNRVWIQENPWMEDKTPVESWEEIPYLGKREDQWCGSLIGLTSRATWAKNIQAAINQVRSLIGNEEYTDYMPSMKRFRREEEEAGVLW

## Cc1cc(=O)c2ccccc2[nH]1
Cytochrome P450 1A2
  AC50: 25.1 µM (inconclusive)
Cytochrome P450 2C9
  AC50: inconclusive

## O=[N+]([O-])c1cccc(OCCN2CCC(Cc3ccccc3)CC2)c1
Fatty acid synthase [1]
  IC50: 5.3 µM (active)
Fatty acid synthase [2]
  IC50: 4.72 µM (active)

## Cn1nc(C(=O)Nc2ccc(S(=O)(=O)N3CCCCC3)cc2)c2ccccc2c1=O
[3]
  IC50: > 50 µM (not active)

## CN(C)c1ncc2ncc(=O)n(CCC#N)c2n1
Cytochrome P450 2C9
  AC50: inconclusive

## COc1ccc(NC(C)=O)cc1NC(=O)CN1CCN(C2c3ccccc3-c3ccccc32)CC1
[4]
  EC50: > 120 µM (not active)
[5]
  EC50: > 120 µM (not active)
[6]
  EC50: 14.7 µM (active)
Vero
  CC50: 19.3 µM (active)

## CCC(C)N1C(=O)/C(=C\c2cc3c4c(c2)CCCN4CCC3)C(=O)NC1=S (stereo not drawn)
Vero
  CC50: > 25 µM (active)

## O=C(Cc1ccccc1)Nc1ccccc1N1CCOCC1
Cytochrome P450 2C19
  AC50: 8.91 µM (inconclusive)
Cytochrome P450 1A2
  AC50: 6.31 µM (inconclusive)
Cytochrome P450 3A4
  AC50: 6.31 µM (inconclusive)
Cytochrome P450 2C9
  AC50: inconclusive

## CC1CCCC(NC(=O)CCn2c(=O)oc3ccccc32)C1C (stereo not drawn)
Cytochrome P450 2C19
  AC50: 4.47 µM (inconclusive)
Cytochrome P450 2C9
  AC50: inconclusive

## Cc1cc(C)nc(N=C(N)Nc2ccc(S(=O)(=O)O)cc2)n1
[3]
  IC50: < 0.4 µM (not active)

## Cc1nc(NC(=O)/C=C/c2ccccc2)sc1C(=O)N(C)C
Escherichia coli
  AC50: 43.6 µM (active)

## CC[n+]1ccc(/C=C/c2c[nH]c3ccccc23)cc1
[7]
  EC50: 0.839 µM (active)
[8]
  EC50: > 60 µM (not active)
[9]
  IC50: 5.16 µM (active)
[10]
  IC50: 12.3 µM (active)
INS1
  AC50: 5.79 µM (active)

## O=C(Nc1ccc(-c2nc3ncccc3o2)cc1)c1ccco1
Escherichia coli
  AC50: 30.5 µM (active)

## O=C(NCCc1ccccc1)/C(=C\c1cccc([N+](=O)[O-])c1)NC(=O)c1ccco1
Fatty acid synthase [1]
  IC50: 3.04 µM (active)
Fatty acid synthase [2]
  IC50: 4.22 µM (active)

## O=C(/C=C/c1ccco1)OCC(=O)N1CCCCC1
[9]
  IC50: 19.5 µM (active)
[10]
  IC50: 35.9 µM (active)
[11]
  IC50: 5.75 µM (active)

## COc1ccc(C(=O)N(C)c2c(C)n(C)n(-c3ccccc3)c2=O)cc1OC
[3]
  IC50: 18.1 µM (not active)

## CC(C)COCC1CC2(CC(C)(c3csc(N)n3)OC2=O)C(=O)O1 (stereo not drawn)
Cytochrome P450 2C9
  AC50: inconclusive

## CCCC(=O)Nc1ccc(Cl)c(NC(=S)NC(=O)c2cc3ccccc3o2)c1
[3]
  IC50: > 50 µM (not active)

## CN(CC(=O)Nc1ccc(N2CCOCC2)cc1)CC(=O)Nc1ccc(N2CCOCC2)cc1
[3]
  IC50: 0.655 µM (not active)

## C#CCOc1c(Br)cc(/C=C2/C(=O)ON=C2C)cc1OCC
Genome polyprotein
  IC50: 84.7 µM (active)

## COc1ccc(CCNCC(O)COc2c(C)cccc2C)cc1OC (stereo not drawn)
Escherichia coli
  AC50: > 150 µM (inactive)

## CCOC(=O)CNC(=O)c1ccccc1
Escherichia coli
  AC50: 21 µM (active)

## COc1cc2c3c(c1)-c1c(sn(-c4cc(OC)ccc4OC)c1=S)C(C)(C)N3C(=O)C2=O
[12]
  EC50: 42.3 µM (active)
[13]
  EC50: 51 µM (active)
Genome polyprotein
  IC50: 61.9 µM (active)

## CC(OC(=O)c1ccc(Cl)c([N+](=O)[O-])c1)C(=O)N1CCN(Cc2ccccc2)CC1 (stereo not drawn)
Fatty acid synthase [1]
  IC50: 6.15 µM (active)
Fatty acid synthase [2]
  IC50: 3.36 µM (active)

## CCn1c(C)nc2cc(S(=O)(=O)C(F)(F)C(F)C(F)(F)F)ccc21 (stereo not drawn)
[3]
  IC50: 3.91 µM (active)

## CCOc1ccccc1NC(=O)Cn1nnc(C(=O)NCc2ccco2)c1N
[4]
  EC50: 0.216 µM (active)
BJ [14]
  EC50: 2.66 µM (inconclusive)
[5]
  EC50: 0.134 µM (active)
[6]
  EC50: 0.109 µM (active)
BJ [15]
  EC50: 3.17 µM (active)
BJ [16]
  EC50: 1.81 µM (inconclusive)
[17]
  EC50: 2.65 µM (active)
[18]
  IC50: > 80 µM (inactive)

## CSc1ccccc1NC(=O)CN(C)CC(=O)c1[nH]c(C)c(C(C)=O)c1C
[9]
  IC50: 6.83 µM (active)
[10]
  IC50: 18.9 µM (active)

## Cc1nn(C)cc1CNC(=O)CCC(=O)O
Cytochrome P450 2C9
  AC50: inconclusive

## Cc1cc(Cl)ccc1OCCCC(=O)N1CCN(C)CC1
Cytochrome P450 2D6
  AC50: 14.1 µM (inconclusive)
Cytochrome P450 1A2
  AC50: 15.8 µM (inconclusive)
Cytochrome P450 2C9
  AC50: inconclusive

## CC(C)(C)C1CCC(OC(=O)C[N+]2(C)CCCC2)CC1 (stereo not drawn)
[9]
  IC50: 2.96 µM (active)
[10]
  IC50: 3.36 µM (active)

## O=[N+]([O-])c1ccc([CH+][N-]NC(=S)N[N-][CH+]c2ccc([N+](=O)[O-])cc2)cc1
[11]
  IC50: 4.17 µM (active)

## Cn1nc(C(=O)Nc2ccc(-n3cnnn3)cc2)c2ccccc2c1=O
[11]
  IC50: 25.7 µM (active)

## COCCOc1ccc(C(F)(F)F)cc1NC(=O)Cc1ccc(S(=O)(=O)N2CCOCC2)s1
Fatty acid synthase [1]
  IC50: 6.76 µM (active)
Fatty acid synthase [2]
  IC50: 8.23 µM (active)

## O=C1/C(=C/c2ccc(F)cc2)SC(=S)N1NS(=O)(=O)c1ccccc1
Genome polyprotein
  IC50: 36.7 µM (active)

## COc1ccc(OC)c(/C=N/NC(=O)c2csc3ccccc23)c1
Cytochrome P450 2D6
  AC50: 20 µM (inconclusive)
Cytochrome P450 2C9
  AC50: inconclusive

## CC/N=C1\S/C(=C\c2cn(C(C)=O)nc2-c2ccccc2)C(=O)N1CC
Vero
  CC50: 24.8 µM (active)

## CCn1cc(C(=O)O)c(=O)c2cc(F)c(N3CCN(C)CC3)cc21 [PEFLOXACIN MESYLATE]
Escherichia coli
  AC50: 1.83 µM (active)
